Measured values from ChEMBL document CHEMBL4627392, “Streptomyces albogriseolus SY67903 Produces Eunicellin Diterpenoids Structurally Similar to Terpenes of the Gorgonian Muricella sibogae, the Bacterial Source” (J Nat Prod, 2020).
Active and inactive are the calls of the source. No cut-off for these calls is given here.

Tests used:
Type in all cases: functional, cell-based
HCT-116 = assay: Cytotoxicity against human HCT116 cells after 44 hrs by MTT assay
A549 = assay: Cytotoxicity against human A549 cells after 44 hrs by MTT assay
HepG2 = assay: Cytotoxicity against human HepG2 cells after 44 hrs by MTT assay
NCI-H292 = assay: Cytotoxicity against human NCI-H292 cells after 44 hrs by MTT assay
MDA-MB-231 = assay: Cytotoxicity against human MDA-MB-231 cells after 44 hrs by MTT assay; conditions: MDA-MB-231, 44 h
MCF7 = assay: Cytotoxicity against human MCF7 cells after 44 hrs by MTT assay; conditions: MCF7, 44 h

Row | SMILES | IC50 (HCT-116; HCT-116, 44 h) | IC50 (A549; A549, 44 h) | IC50 (HepG2; HepG2, 44 h) | IC50 (NCI-H292; NCI-H292, 44 h) | IC50 (MDA-MB-231) | IC50 (MCF7) | Activity (HCT-116) | Activity (A549) | Activity (HepG2) | Activity (NCI-H292)
1 | C=C1CC[C@@H](C(C)C)[C@H]2/C=C(/C(=O)OC)CC/C=C(\C(=O)O)[C@H](O)C[C@H]12 | > 100 µM | > 100 µM | > 100 µM | > 100 µM | > 100 µM | > 100 µM | – | – | – | –
2 | C=C1CCC(=C(C)C)[C@H]2/C=C(/C(=O)OC)CC/C=C(\C(=O)O)[C@H](O)C[C@H]12 | – | – | – | – | 8.6 µM | 5.3 µM | Active | Active | Active | Active
